Reference: ChEMBL document CHEMBL1134848, “Synthesis and biological evaluation of a spongistatin AB-spiroketal analogue” (2002)

Assays:
Format in all cases: functional
[1] = system: BXPC-3; assay: In vitro growth inhibitory activity on human Pancreas-a (BXPC-3) cell line
[2] = system: DU-145; assay: In vitro growth inhibitory activity on human Prostate (DU-145) cell line
[3] = system: KM-20L2; assay: In vitro growth inhibitory activity on human Colon (KM20L2) cell line
[4] = system: MCF7; assay: In vitro growth inhibitory activity on human Breast adn (MCF-7) cell line
[5] = system: NCI-H460; assay: In vitro growth inhibitory activity on human Lung-NSC (NCI-H460) cell line
[6] = system: SF-268; assay: In vitro growth inhibitory activity on human CNS Gliobl (SF268) cell line

GI50 [1] | GI50 [2] | GI50 [4] | GI50 [5] | Structure (SMILES) | GI50 [3] | GI50 [6]
> 10 µg/mL | > 10 µg/mL | > 10 µg/mL | > 10 µg/mL | OCC1CCCC2(CCCC(CO)O2)O1 (single isomer, unassigned; (-)) | > 10 µg/mL | > 10 µg/mL
> 10 µg/mL | > 10 µg/mL | > 10 µg/mL | > 10 µg/mL | CC(=O)OC1CC(CCO)OC2(C1)CC(C)(O)CC(CO)O2 (single isomer, unassigned; (-)) | > 10 µg/mL | > 10 µg/mL
